Measurements reported in BigSolDB 2.1.

Oc1ccc(OCc2ccccc2)cc1
solubility (mole fraction)
Settings | 283.15 K | 288.15 K | 293.15 K | 298.15 K | 303.15 K | 308.15 K | 313.15 K
in 1,4-dioxane | – | 0.0903 | 0.131 | 0.19 | 0.258 | 0.342 | 0.435
in acetonitrile | 0.036 | 0.0447 | 0.0546 | 0.0669 | 0.0821 | 0.101 | 0.125
in cyclohexane | 0.000542 | 0.000933 | 0.00156 | 0.00261 | 0.00396 | 0.0058 | 0.00802
in ethanol | 0.0319 | 0.0396 | 0.0484 | 0.0595 | 0.0735 | 0.0905 | 0.111
in ethyl acetate | 0.0773 | 0.129 | 0.201 | 0.293 | 0.399 | 0.519 | 0.632
in isopropanol | 0.0317 | 0.0383 | 0.0476 | 0.0585 | 0.0736 | 0.0921 | 0.116
in methanol | 0.0381 | 0.0476 | 0.0593 | 0.0739 | 0.0908 | 0.111 | 0.136
in n-butanol | 0.0227 | 0.0282 | 0.0346 | 0.0434 | 0.0543 | 0.0666 | 0.0835
in n-hexane | 0.000327 | 0.000453 | 0.000749 | 0.00108 | 0.00161 | 0.00226 | 0.00313
in n-octanol | 0.00719 | 0.0101 | 0.0136 | 0.0171 | 0.0224 | 0.0289 | 0.0355
in n-propanol | 0.0287 | 0.0352 | 0.0428 | 0.0521 | 0.0642 | 0.0794 | 0.0994
in water | 5e-06 | 7e-06 | 9e-06 | 1.3e-05 | 1.7e-05 | 2.3e-05 | 3e-05
